According to patent publication US20240308878A1, “WATER TREATMENT SYSTEM, WATER TREATMENT METHOD, AND AMINE SOLUTION” (KABUSHIKI KAISHA TOSHIBA, priority 2023, published 2024):

Assay: Heating of the separated supernatant in a thermostatic bath: separation into amine phase and aqueous phase
Format: physicochemical
From the text: The element 15 that separates the supernatant phase F into the aqueous phase H and the organic phase J and recovers the tertiary amine recovers the tertiary amine included in the supernatant phase F. As the element 15 that separates the supernatant phase F into the aqueous phase H and the organic phase J and recovers the tertiary amine, the mechanism of heating the supernatant phase F is preferable. For example, the supernatant phase F is stored in a second container, not shown, and the supernatant phase F is heated in the second container. As the temperature of the supernatant phase F is increased, the compatibility of the tertiary amine compounds of the embodiment with water changes, and supernatant phase F separates into the organic phase and the aqueous phase. The supernatant phase F separates into the aqueous phase H and the organic phase J at a higher temperature than the first mixture D which separates into the phases. It is preferable that the supernatant phase F is heated to a temperature higher than the temperature of the first mixture (the temperature at which the first mixture D is phase-separated (the temperature at which the supernatant phase F and the concentrated phase G are separated separately)). It is preferable that the supernatant phase F is heated to a temperature 5[° C.] or higher than the temperature of the first mixture D (the temperature at which the first mixture D is phase-separated (the temperature at which the supernatant phase F and the concentrated phase G are separated separately)). It is preferable that the supernatant phase F is heated to a temperature 10[° C.] or higher than the temperature of the first mixture D (the temperature at which the first mixture D is phase-separated (the temperature at which the supernatant phase F and the concentrated phase G are separated separately)). It is preferable that the supernatant phase F is heated to a temperature 20[° C.] or higher than the temperature of the first mixture D (the temperature at which the first mixture D is phase-separated (the temperature at which the supernatant phase F and the concentrated phase G are separated separately)). It is preferable that the supernatant phase F is heated to a temperature 20 [° C.] or higher than the temperature of the first mixture D. It is preferable that the supernatant phase F is heated to a temperature 30 [° C.] or higher than the temperature of the first mixture D (the temperature at which the first mixture D is phase-separated (the temperature at which the supernatant phase F and the concentrated phase G are separated separately)). The supernatant phase F is preferably heated to 35[° C.] or more and less than 90[° C.]. From the viewpoint of reducing energy consumption, it is more preferably that the supernatant phase F is heated to 35[° C.] or more and 75[° C.] or less. The supernatant phase F is preferably phase-separated at 35 [° C.] or more and less than 90[° C.]. From the viewpoint of reducing energy consumption, the supernatant phase F is more preferably phase-separated at 35[° C.] or more and less than 90[° C.]. It is preferable to use waste heat generated at a plant or the like to heat the supernatant phase F.
When the separated supernatant solution is heated in a thermostatic bath at 70[° C.], it is separated into an amine phase and an aqueous phase. When the amine phase is separated and used for the same test, the salt removal rate of 97.5 [%] is obtained, and the concentration of the lower phase being separated of 21.2 [wt %] is obtained, which is the similar results as in the first test.

[1] = supernatant of the S/F 4.0 test
[2] = supernatant of the S/F 6.0 test
[3] = supernatant of the S/F 7.0 test
[4] = supernatant of the S/F 10.0 test

Row | Separating Temperature Water/Amine [1] | Separating Temperature Water/Amine [2] | Separating Temperature Water/Amine [3] | Separating Temperature Water/Amine [4] | SMILES
1 | 70 °C | 70 °C | 60 °C | 70 °C | C1CCN(CCCN2CCCC2)C1 [chemical formula (1-2)]
2 | 70 °C | 70 °C | 50 °C | 70 °C | CCOC(=O)N1CCN(CCCN2CCN(C(=O)OCC)CC2)CC1 [chemical formula (2-1)]
